Reference: patent US6369049B1, “Treatment of mastitis” (Eli Lilly and Company, priority 1998, dated 2002)

Columns and labels:
Escherichia coli = assay: MIC vs. Escherichia coli; assay type: cell-based; set-up: unit not given beside the values; settings: Incubated at 37° C. overnight
Source text: (§1) The formula I compounds are also active against certain Gram-negative species. Tables 3 and 3a show the MIC's of Formula I compounds against certain Gram-negative species.

[1] = tested on: Pasteurella multocida 10,102 (bovine); assay: MIC vs. Pasteurella multocida 10,102 (bovine); assay type: cell-based; settings: Incubated at 37° C. overnight
Source text: as §1

S. aureus F1C = assay: MIC vs. S. aureus F1C; assay type: cell-based, Staphylococcus aureus; set-up: unit not given beside the values; settings: Incubated at 37° C. overnight
Source text: (§2) Tables 2 and 2a summarize the minimal inhibitory concentrations (MIC's) at which illustrative formula I compounds and cephalothin inhibit certain microorganisms that are associated with mastitis, such as Staphylococcus aureus 10092 (Newbould strain).

[2] = tested on: Streptococcus dysgalactiae; assay: MIC vs. Streptococcus dysgalactiae; assay type: cell-based; set-up: unit not given beside the values; settings: Incubated at 37° C. overnight
Source text: as §2

[3] = tested on: Pasteurella haemolytica 129R (bovine); assay: MIC vs. Pasteurella haemolytica 129R (bovine); assay type: cell-based; settings: Incubated at 37° C. overnight
Source text: as §1

[4] = tested on: Staphylococcus epidermidis 174B; assay: MIC vs. Staphylococcus epidermidis 174B; assay type: cell-based; set-up: unit not given beside the values; settings: Table 2a
Source text: as §2

[5] = tested on: Pasteurella multocida 108E (bovine); assay: MIC vs. Pasteurella multocida 108E (bovine); assay type: cell-based; settings: Incubated at 37° C. overnight
Source text: as §1

S. aureus 174 C = assay: MIC vs. S. aureus 174 C; assay type: cell-based, Staphylococcus aureus; set-up: unit not given beside the values; settings: Incubated at 37° C. overnight
Source text: as §2

[6] = tested on: Pasteurella haemolytica 128K (bovine); assay: MIC vs. Pasteurella haemolytica 128K (bovine); assay type: cell-based; settings: for MIC against Pasteurella haemolytica Strain 128K: Table 3a, incubated at 37° overnight
Source text: as §1

[7] = tested on: Streptococcus uberis 167I; assay: MIC vs. Streptococcus uberis 167I; assay type: cell-based; set-up: unit not given beside the values; settings: Table 2a
Source text: as §2

[8] = tested on: Streptococcus agalactiae 150G; assay: MIC vs. Streptococcus agalactiae 150G; assay type: cell-based; set-up: unit not given beside the values; settings: Table 2a
Source text: as §2

[9] = tested on: Staphylococcus aureus 10092 (Newbould strain); assay: MIC vs. S. aureus 10092 (Newbould strain); assay type: cell-based; set-up: unit not given beside the values; settings: for MIC vs. Staphylococcus aureus 10,092: Table 2a
Source text: as §2

[10] = tested on: Staphylococcus aureus 168H; assay: MIC vs. Staphylococcus aureus 168H; assay type: cell-based; set-up: unit not given beside the values; settings: Table 2a
Source text: as §2

S. aureus ATCC 29213 = assay: MIC vs. S. aureus ATCC 29213; assay type: cell-based, Staphylococcus aureus; set-up: unit not given beside the values; settings: Incubated at 37° C. overnight
Source text: as §2

[11] = tested on: Pasteurella multocida 1051 (swine); assay: MIC vs. Pasteurella multocida 1051 (swine); assay type: cell-based; settings: Incubated at 37° C. overnight
Source text: as §1

[12] = tested on: Streptococcus dysgalactiae 152B; assay: MIC vs. Streptococcus dysgalactiae 152B; assay type: cell-based; set-up: unit not given beside the values; settings: Table 2a
Source text: as §2

Streptococcus faecalis = assay: MIC vs. Streptococcus faecalis; assay type: cell-based; set-up: unit not given beside the values; settings: Table 2a
Source text: as §2

[13] = tested on: Streptococcus agalactiae 150 B; assay: MIC vs. Streptococcus agalactiae 150 B; assay type: cell-based; set-up: unit not given beside the values; settings: Incubated at 37° C. overnight
Source text: as §2

[14] = tested on: Streptococcus uberis 150 L; assay: MIC vs. Streptococcus uberis 150 L; assay type: cell-based; set-up: unit not given beside the values; settings: Incubated at 37° C. overnight
Source text: as §2

[15] = tested on: Pasteurella multocida ATCC 12945; assay: MIC vs. Pasteurella multocida ATCC 12945; assay type: cell-based; settings: Incubated at 37° C. overnight
Source text: as §1

[16] = tested on: Streptococcus uberis 166 L; assay: MIC vs. Streptococcus uberis 166 L; assay type: cell-based; set-up: unit not given beside the values; settings: Incubated at 37° C. overnight
Source text: as §2

Salmonella typhimurium = assay: MIC vs. Salmonella typhimurium; assay type: cell-based; settings: Incubated at 37° C. overnight
Source text: as §1

[17] = tested on: Staphylococcus aureus 170C; assay: MIC vs. Staphylococcus aureus 170C; assay type: cell-based; set-up: unit not given beside the values; settings: Table 2a
Source text: as §2

[18] = tested on: Pasteurella haemolytica 114F (bovine); assay: MIC vs. Pasteurella haemolytica 114F (bovine); assay type: cell-based; settings: Incubated at 37° C. overnight
Source text: as §1

[19] = tested on: Staphylococcus aureus 10092 (Newbould); assay: Induced Staphylococcus aureus mastitis model in lactating goats; assay type: in vivo; settings: S. aureus 10092 challenge, in peanut oil, approximately 25 mg/5 mL dose per half, 2 consecutive milkings 12 hours apart
Source text: Sixteen lactating goats were selected based on the absence of Staphylococcus aureus in pre-challenge milk cultures. Maintenance ration was provided to the animals throughout the study. The goats were milked twice each day using a portable goat milker.
Milk samples were collected during the morning milking. One day prior to challenge, milk culture samples were collected from each half of the test animals to determine if there was a pre-existing infection. Additionally, a sample was collected from each half for Somatic Cell Count (SCC) determination. A milk culture sample and a sample for SCC were collected from each half 24 hours post-challenge and on Days +4 to +6, +8, +11, +13, and +15.
Udder scoring was performed during each milking using the following table:
General health observations and body temperature were recorded once a day following milking during the challenge and treatment periods.
Milk samples were submitted for analysis for SCC using an electronic somatic cell counting system.
Milk culture samples were assayed for bacterial culture by plating 1.0 mL and 0.1 mL of the milk sample directly onto duplicate blood agar plates. Additionally, dilutions […] the milk sample were plated. Plates were incubated overnight at 37° C.
Staphylococcus aureus 10092 (Newbould) was used as the challenge strain. The challenge culture was grown in Tryptic Soy Broth (TSB) from a lyovial stock overnight (16 hours) at 37° C. TSB (100 mL) was inoculated with 1 mL of the overnight culture and incubated at 37° C. with shaking for 4 hours. The culture was centrifuged at 9000 rpm for 10 minutes at 10° C.; supernatant was removed and the pellet was resuspended in phosphate buffered saline (PBS). Optimum O.D. reading at 650 nm was approximately 0.035. A 10-fold dilution series was prepared with saline to determine the CFU/mL, plating 10^−5, 10^−6, and 10^−7 dilutions onto duplicate blood agar plates. The 10^−7 dilution (approximately 10 CFU/mL) was used for the challenge material, yielding a challenge of 50 CFU/half with a 5-mL infusion.
Sixteen goats were used for the trial. During a one day pre-challenge period, milk samples were collected and temperatures were taken during the morning milking. Milk/udder evaluations were documented during the morning and afternoon milkings.
Staphylococcus aureus 10092 was infused into both halves in each of the goats. The goats were challenged following the morning milking and milked in the afternoon on the day of challenge. The challenge inoculum volume was 5 mL/half containing approximately 50 CFU S. aureus.
For the 24 hr post-challenge period milk samples were collected during the morning milking, and milk/udder evaluations made during the morning and afternoon milking.
Treatment was started at 36 hours post-challenge. Milk samples were collected for culture and SCC 24 hours post-challenge, prior to the morning milking, and the treatment period started following the afternoon milking.
Eight halves (4 goats) each were treated for 2 consecutive milkings 12 hours apart, following milking. […]
Following treatment, the goats were milked and observed for 15 days. Milk samples were collected on Days +4 to +6, +8, +11, +13, and +15 to determine if the infection had cleared.
Establishment of mastitis was determined by bacterial culturing, severity of udder scoring, somatic cell count results, and body temperature.
On Days +2 to +6, milk samples were collected for a colorimetric assay to determine whether the antibiotic was still present in the milk.

| SMILES | MIC vs. S. aureus F1C (S. aureus F1C) | MIC vs. Streptococcus dysgalactiae [2] | MIC vs. Staphylococcus epidermidis 174B [4] | MIC vs. S. aureus 174 C (S. aureus 174 C) | MIC against Pasteurella haemolytica Strain 128K [6] | MIC vs. Streptococcus uberis 167I [7] | MIC vs. Streptococcus agalactiae 150G [8] | MIC vs. Staphylococcus aureus 10,092 [9] | MIC vs. Staphylococcus aureus 168H [10] | MIC vs. S. aureus ATCC 29213 (S. aureus ATCC 29213) | MIC vs. Streptococcus dysgalactiae 152B [12] | MIC vs. Streptococcus faecalis (Streptococcus faecalis) | MIC vs. Streptococcus agalactiae 150 B [13] | MIC vs. Streptococcus uberis 150 L [14] | MIC vs. Streptococcus uberis 166 L [16] | MIC vs. Staphylococcus aureus 170C [17] | % Bacteriologic Cures [19] [%] | other results |
| --- | --- | --- | --- | --- | --- | --- | --- | --- | --- | --- | --- | --- | --- | --- | --- | --- | --- | --- |
| CC(=O)OCC1=C(C(=O)O)N2C(=O)[C@@H](NC(=O)Cc3cccs3)[C@H]2SC1 [Cephalothin, reference compound] | 0.25 | 0.0625-0.125 | 0.5 | 0.25 | 1 | 32 | 0.5 | 0.5 | 0.5 | 0.25 | 0.5 | 16 | 0.125 | 0.125 | 0.0625 | 0.5 | – | MIC vs. Escherichia coli (Escherichia coli): 8; MIC vs. Pasteurella multocida 10,102 (bovine) [1]: 0.5; MIC vs. Pasteurella haemolytica 129R (bovine) [3]: 1; MIC vs. Pasteurella multocida 108E (bovine) [5]: 0.5; MIC vs. Pasteurella haemolytica 128K (bovine) ([6]; Table 3, incubated at 37° C. overnight): 0.5; MIC vs. Pasteurella multocida 1051 (swine) [11]: 0.25; MIC vs. Pasteurella multocida ATCC 12945 [15]: 0.25; MIC vs. Salmonella typhimurium (Salmonella typhimurium): 4; MIC vs. Pasteurella haemolytica 114F (bovine) [18]: 1 |
| O=C(COc1c(F)cc(F)cc1F)NC1C(=O)N2C(C(=O)O)=C(Cl)CSC12 (centres unmarked) [Compound 5] | – | – | 1 | – | 16 | 16 | 1 | 1 | 2 | – | 0.5 | 16 | – | – | – | 4 | 100 | – |
| O=C(COc1ccc(OC(F)(F)F)cc1)NC1C(=O)N2C(C(=O)O)=C(Cl)CSC12 (centres unmarked) [Compound 8] | – | – | 1 | – | 32 | 128 | 1 | 1 | 1 | – | 0.5 | 64 | – | – | – | <0.125 | 50 | – |
| O=C(Cc1c(F)c(F)c(F)c(F)c1F)NC1C(=O)N2C(C(=O)O)=C(Cl)CSC12 (centres unmarked) [Compound 4] | 1 | 0.0312 | – | 1 | – | – | – | – | – | 1 | – | – | 0.5 | 0.5 | 0.0156 | – | – | MIC vs. S. aureus 10092 ([9]; Table 2, incubated at 37° C. overnight): 0.5 |
